Data from patent publication US20190290656A1, “PT(IV) PRODRUGS” (YISSUM RESEARCH DEVELOPMENT COMPANY OF THE HEBREW …, priority 2015, published 2019).
Entries after “also recorded” stand apart in the source; their conditions may differ. Like-named read-outs stand apart in the source and are kept apart here.

Key:
PSN1 cells = assay: MTT cytotoxicity assay, PSN1; type: cell-based, human; settings: PSN1, 72 h, MTT
Protocol: (§1) MTT assay. […] Triplicate cultures were established for each treatment.
(§2) The two dimers, 3a and 3b, as well as compounds 1a and 2a were screened against six human cancer cell lines representative of lung (H157), colon (HCT-15), cervical (A431), ovarian (2008) and pancreatic (PSN1) cancers, along with melanoma (A375). Cytotoxicity was evaluated by means of the MTT test after 72 h of treatment and the in vitro antitumor potential of newly synthesized derivatives was compared to that of the reference metallo-drugs CDDP and OXP.

A431 cells = assay: MTT cytotoxicity assay, A431; type: cell-based, human; settings: A431, 72 h
Protocol: as §1, §2

2008 cells = assay: MTT cytotoxicity assay, 2008; type: cell-based, human; settings: 2008, 72 h, MTT
Protocol: as §1, §2

PSN-1 spheroids = assay: 3D spheroid APH assay, PSN-1; type: cell-based, human; settings: PSN-1 spheroids, 72 h, APH test
Text: (§3) Acid phosphatase (APH) assay. A modified APH assay, which is based on quantification of cytosolic acid phosphatase activity, was used for determining cell viability in spheroids. […] Triplicate cultures were established for each treatment. […] Evaluation was based on means from at least four independent experiments.
(§4) In order to improve the predictive capacity of the in vitro assays, we tested the activity in three three-dimensional (3D) cell cultures; human colon cancer cells, HCT-15, and human pancreatic cancer cells, KRAS wild type BxPC3 cells KRAS mutated PSN-1 cells. The cancer spheroids were treated with 3a and 3b for 72 h and the cell viability was assessed by means of the APH assay (Table 6). For comparison purposes, the cytotoxicities of CDDP and OXP were evaluated under the same experimental conditions.

H157 cells = assay: MTT cytotoxicity assay, H157; type: cell-based, human; settings: H157, 72 h
Protocol: as §1, §2

HCT-15 cells = assay: MTT cytotoxicity assay, HCT-15; type: cell-based, human
Protocol: (§5) Cisplatin (CDDP) and oxaliplatin (OXP) were dissolved just before the experiment in a 0.9% NaCl solution. […]
(§6) Cancer Res. 1988, 48, 589-601]. […] Triplicate cultures were established for each treatment.
as §1, §2

[1] = system: human embryonic kidney HEK293 cells; assay: MTT cytotoxicity against non-tumor cells; type: cell-based
Protocol: as §1
The cytotoxic activity of derivatives 3a and 3b was also evaluated against non-tumor cells, namely human embryonic kidney HEK293 cells (Table 7). Both compounds 3a and 3b were more cytotoxic than CDDP.

BxPC3 spheroids = assay: 3D spheroid APH assay, BxPC3; type: cell-based, human; settings: 72 h, APH test
Text: as §3, §4

HCT-15 spheroids = assay: 3D spheroid APH assay, HCT-15; type: cell-based, human; settings: HCT-15 spheroids, 72 h, APH test
Text: as §3, §4

A375 cells = assay: MTT cytotoxicity assay, A375; type: cell-based, human
Protocol: as §5, §6, §1, §2

PC3 cells = assay: MTT cytotoxicity assay, PC3; type: cell-based, human; settings: PC3, 72 h exposure, read-out: IC50 (median growth inhibitory concentration)
Protocol: (§7) Cisplatin (CDDP) and oxaliplatin (OXP) were dissolved just before the experiment in a 0.9% NaCl solution.
(§8) Human prostate adenocarcinoma (PC3) cells were obtained from European Collection of Cell Cultures (ECACC, Salisbury, UK). Human ovarian cancer cell lines A2780 and its cisplatin resistant variant, A2780cisR, were kindly provided by Prof.
(§9) Triplicate cultures were established for each treatment.

A2780cisR cells = assay: MTT cytotoxicity assay, A2780cisR (cisplatin resistant); type: cell-based, human; settings: for IC50: 72 h exposure, MTT, read-out: IC50 (median growth inhibitory concentration); for resistance factor: ratio IC50 resistant (A2780cisR) / sensitive (A2780) cells
Protocol: (§10) Platinum(IV) complexes were dissolved in DMSO to stock solutions of 1 mg/mL just before the experiment, and a calculated amount of drug solution was added to the cell growth medium to a final solvent concentration of 0.5%, which had no discernible effect on cell killing. Cisplatin (CDDP) and oxaliplatin (OXP) were dissolved just before the experiment in a 0.9% NaCl solution.
as §8, §6

MCF-7 cells = assay: MTT cytotoxicity assay, MCF-7; type: cell-based, human; settings: MCF-7, 72 h exposure, MTT; read-out: IC50 (median growth inhibitory concentration)
Protocol: as §7, §8, §9

A498 cells = assay: MTT cytotoxicity assay, A498; type: cell-based, human; settings: A498, 72 h exposure, read-out: IC50 (median growth inhibitory concentration)
Protocol: as §10, §8, §6

BxPC3 cells = assay: MTT cytotoxicity assay, BxPC3; type: cell-based, human; settings: BxPC3, 72 h exposure, MTT; read-out: IC50 (median growth inhibitory concentration)
A2780 cells = assay: MTT cytotoxicity assay, A2780; type: cell-based, human; settings: A2780, 72 h exposure, MTT; read-out: IC50 (median growth inhibitory concentration)
Protocol: as §10, §8, §6

nine cancer cell lines = assay: MTT cytotoxicity, over the nine cancer cell lines; settings: for cytotoxicity IC50 values (in words): uncoordinated ligands
A549 cells = assay: MTT cytotoxicity assay, A549; type: cell-based, human; settings: A549, 72 h exposure, MTT; read-out: IC50 (median growth inhibitory concentration)
Protocol: as §7, §8, §9

[2] = system: Histone deacetylase (HDAC); assay: Histone deacetylase assay (Fluor-de-Lys) in MCF-7 cells; type: cell-based, human
Protocol: Histone deacetylase activity was determined using Fluor-de-Lys® HDAC fluorometric activity assay kit (Enzo Life Sciences International, Inc., Plymount Meeting, Pa., U.S.A.). […] Fluorescence was measured using a Fluoroskan Ascent FL (Labsystem, Finland) plate reader, with excitation at 360 nm and emission at 460 nm. For comparison purpose, the HDAC activity was also measured in nuclear extracts of MCF-7-treated cells by means of the same fluorometric activity assay kit. In this latter case, MCF-7 nuclear extracts were obtained as follow: cell pellets were re-suspended in lysis buffer [Tris.HCl (10 mM, pH 8.0), KCl (60 mM), EDTA (1.2 mM), DTT (1 mM), PMSF (0.05 mM), NP-40 (0.05%)] and kept on ice for 10 min. Subsequently, samples were centrifuged at 1000 g and re-suspended in the nuclear extraction buffer [Tris.HCl (20 mM, (pH 8.0), NaCl (420 mM), MgCl2 (0.7 mM), EDTA (0.25 mM), glycerol (25%)] for 30 min at 4° C., and then centrifuged at 15000 g for 15 min at 4° C.
The complexes described here were specifically designed to release either VPA of PhB inside the cells in the hope that they will inhibit HDAC activity paving the way for more efficient DNA platination. Thus, in addition to measuring the levels of DNA platination, we also measured the ability of these pro-drugs to inhibit HDAC activity in cells. […] For comparison purposes, the HDAC inhibitory effect determined by tested complexes was also assayed in isolated nuclei of MCF-7 treated cells (FIG. 3B).
The HDAC activity was determined by the Fluor de Lys® Fluorescent Cellular Activity Assay (Enzo Life Sciences).
Also, MCF-7 cells were incubated for 24 h with increasing concentrations of compounds I-VIII and their HDAC activity was determined. The IC50 values for the inhibition of HDAC activity in the cells are depicted in FIG. 3C.

[3] = HCT-15, 72 h, MTT (Table 5), read-out: IC50 (μM) ± S.D.
[4] = A375, 72 h, MTT (Table 5), read-out: IC50 (μM) ± S.D.
[5] = HCT-15, 72 h exposure, MTT (Table 1), read-out: IC50 (median growth inhibitory concentration)
[6] = read-out: average IC50 values for the nine cancer cell lines, mean over nine cell lines, 72 h MTT
[7] = A375, 72 h exposure, MTT (Table 1), read-out: IC50 (median growth inhibitory concentration)

## Cc1c(C)c2c3c4c1=CC=C[N]4[Pt+2][N]3C=CC=2.N[C@H]1CCCC[C@@H]1N [[Pt(DACH)(56Phen)], reference compound]
PSN1 cells
  IC50: 0.25 ± 0.08 µM
A431 cells
  IC50: 0.28 ± 0.08 µM
2008 cells
  IC50: 0.74 ± 0.12 µM
PSN-1 spheroids
  IC50: 55.5 ± 9.75 µM
H157 cells
  IC50: 0.16 ± 0.01 µM
HCT-15 cells; [3]
  IC50: 0.69 ± 0.11 µM
[1]; HEK293 non-tumor cells, 72 h, MTT
  IC50: 1.12 ± 0.87 µM
[1]; ratio between average IC50 of non-tumor cells and IC50 of malignant cells
  SI (selectivity index): 0.9
BxPC3 spheroids
  IC50: 100 ± 12.1 µM
HCT-15 spheroids
  IC50: 60.2 ± 2.92 µM
A375 cells; [4]
  IC50: 1.12 ± 0.42 µM

## CC(=O)[O][Pt]([NH2])([NH2])([Cl])([Cl])[O]C(=O)CCCc1ccccc1 [VII, Ctc-[Pt(NH3)2(C2H3O2)(C10H11O2)Cl2]]
PC3 cells
  IC50: 4.34 ± 1.25 µM
A2780cisR cells; A2780cisR
  IC50: 1.54 ± 0.27 µM
MCF-7 cells
  IC50: 3.43 ± 0.14 µM
HCT-15 cells; [5]
  IC50: 5.17 ± 0.85 µM
A498 cells
  IC50: 8.42 ± 1.47 µM
BxPC3 cells
  IC50: 10.1 ± 1.69 µM
A2780 cells
  IC50: 0.65 ± 0.04 µM
Nine cancer cell lines; in five out of the nine cell lines
  factors more potent than cisplatin: 2.1-9 fold
Nine cancer cell lines; [6]
  IC50: 4.8 µM
Nine cancer cell lines; read-out: range of IC50 values over the cell lines, lowest-highest over nine cell lines
  IC50: 0.65 to 10.1 µM
A549 cells
  IC50: 7.16 ± 1.11 µM
A375 cells; [7]
  IC50: 6.25 ± 1.94 µM

## O=C(O)CCCc1ccccc1 [Compound 4-PB, 4-phenylbutyric acid, reference compound]
Nine cancer cell lines; listed as PhB
  cytotoxicity IC50 values (in words): millimolar range; also recorded: mM range
[2]; MCF-7, 24 h, increasing concentrations
  IC50 for cellular inhibition of HDAC activity (in words): significantly higher

## CCCC(CCC)C(=O)O [VPA, valproic acid, reference compound]
Nine cancer cell lines
  cytotoxicity IC50 values (in words): millimolar range; also recorded: mM range
[2]; MCF-7, 24 h, increasing concentrations, read-out: IC50 for cellular inhibition of HDAC activity
  IC50: ~8000 µM

## CC(/C=C/C(=O)NO)=C\[C@@H](C)C(=O)c1ccc(N(C)C)cc1 [TSA, trichostatin A]
[2]; MCF-7, 24 h incubation with IC50 concentrations
  inhibition of HDAC activity: about 90%

## O=C(CCCc1ccccc1)[O][Pt]12([O]C(=O)CCCc3ccccc3)([NH]C3CCCCC3[NH]1)[O]C(=O)C(=O)[O]2 (centres unmarked) [VIII, [Pt(DACH)(C10H11O2)2(ox)]]
PC3 cells
  IC50: 6.35 ± 1.19 µM
A2780cisR cells; A2780cisR
  IC50: 1.96 ± 0.44 µM
MCF-7 cells
  IC50: 2.28 ± 0.46 µM
HCT-15 cells; [5]
  IC50: 12.5 ± 1.13 µM
A498 cells
  IC50: 9.32 ± 1.07 µM
BxPC3 cells
  IC50: 7.64 ± 1.15 µM
A2780 cells
  IC50: 0.9 ± 0.08 µM
Nine cancer cell lines; [6]
  IC50: 6.81 µM
A549 cells
  IC50: 19.6 ± 3.22 µM
A375 cells; [7]
  IC50: 0.64 ± 0.13 µM

## c,c,t-[Pt(DACH)(56Phen)(PhBu)(Succ)]Cl2 [Compound 2a]
PSN1 cells
  IC50: 3.23 ± 1.12 µM
A431 cells
  IC50: 4.15 ± 1.12 µM
HCT-15 cells; [3]
  IC50: 6.25 ± 3.08 µM
A375 cells; [4]
  IC50: 1.57 ± 0.16 µM

## CCCC(CCC)C(=O)[O][Pt]12([O]C(=O)C(CCC)CCC)([NH]C3CCCCC3[NH]1)[O]C(=O)C(=O)[O]2 (centres unmarked) [III, [Pt(DACH)(C8H15O2)2(ox)]]
PC3 cells
  IC50: 10.1 ± 1.17 µM
A2780cisR cells; A2780cisR
  IC50: 8.8 ± 2.1 µM
A2780cisR cells
  resistance factor: 6.8
MCF-7 cells
  IC50: 5.7 ± 0.9 µM
HCT-15 cells; [5]
  IC50: 16.4 ± 1.63 µM
A498 cells
  IC50: 5.21 ± 1.1 µM
BxPC3 cells
  IC50: 14.4 ± 2.16 µM
A2780 cells
  IC50: 1.3 ± 0.2 µM
A549 cells
  IC50: 20.5 ± 2.14 µM
A375 cells; [7]
  IC50: 4.17 ± 0.87 µM

## C1CCNCC1.CCCC(CCC)C(=O)[O][Pt]([OH])([Cl])[Cl].CCCCN [Compound V, trans-[Pt(n-butylamine)(VPA)(OH) (piperidine) Cl2]]
PC3 cells
  IC50: 16.8 ± 1.41 µM
A2780cisR cells; A2780cisR
  fold more potent/effective than cisplatin: roughly 11 fold
  IC50: 1.29 ± 0.29 µM
A2780cisR cells
  resistance factor: 1.1
MCF-7 cells
  IC50: 8.8 ± 1.48 µM
HCT-15 cells; [5]
  IC50: 14.4 ± 2.05 µM
A498 cells
  IC50: 8.64 ± 0.95 µM
BxPC3 cells
  IC50: 4.43 ± 1.94 µM
A2780 cells
  IC50: 1.18 ± 0.33 µM
Nine cancer cell lines; [6]
  IC50: 9.27 µM
A549 cells
  IC50: 15.5 ± 1.13 µM
A375 cells; [7]
  IC50: 12.4 ± 2.93 µM

## c,c,t-[Pt(NH3)2Cl2(DCA)(GABA)](TFA) [Compound 1a]
PSN1 cells
  IC50: 4.74 ± 2.87 µM
A431 cells
  IC50: 4.98 ± 1.63 µM
HCT-15 cells; [3]
  IC50: 12.5 ± 3.58 µM
A375 cells; [4]
  IC50: 2.81 ± 0.21 µM
